{
  "source": "paper PMC11079024",
  "about": "“Identification of a family of species-selective complex I inhibitors as potential anthelmintics” (Nature Communications, 2024)",
  "key": {"L1 wild-type C. elegans": {"tested_on": "L1 wild-type C. elegans", "conditions": "caenorhabditis elegans"}, "C. elegans": {"tested_on": "C. elegans", "experiment": "C. elegans chemical screens of RIKEN NPD libraries at 50 μM (hit identification in KCN survival and development/viability assays)", "type": "cell-based, Caenorhabditis elegans"}, "HEK293 cells": {"tested_on": "HEK293 cells", "conditions": "read-out: HEK293 Cell Viability Assay LC50; 2 days exposure"}, "adult H. polygyrus [1]": {"tested_on": "adult H. polygyrus", "experiment": "microbe, parasite or virus in culture", "type": "cell-based, Heligmosomoides polygyrus", "conditions": "anaerobic, 24 hours after treatment; for Percent Worms Affected: adult H. polygyrus, affected = score equal to or lower than 1.5; for # of Worms Affected: worms with score equal to or lower than 1.5; for Worm viability score, individual worms (Worm1-Worm20): scale from 0 (dead) to 3 (motile)", "procedure": "To investigate the impact of the eleven benzimidazole derivatives under anaerobic conditions, an anaerobic chamber with an integrated incubator (Coy Laboratory Products, USA) was used. The same procedure was followed as described for the aerobic drug screening in adult H. polygyrus, but the incubation took place within the anaerobic chamber (37 °C, 85% N2, 10% CO2, 5% H2). Benzimidazole derivatives were tested at a concentration of 10 µM. For scoring, the plates had to be removed from the anaerobic chamber. The whole experiment was performed two times i.e., two independent biological replicates.\nThe activities of eleven benzimidazole derivatives were tested against adult H. polygyrus viability in vitro under aerobic (+, white boxplots) and anaerobic (–, coloured boxplots) conditions (see Methods). After 24-hour chemical treatment, worm viability was manually scored by an examiner using a scale from 0 (dead) to 3 (motile); DMSO was used as a negative control in both aerobic and anaerobic conditions; levamisole was used as a positive control in anaerobic conditions. The percentage of affected worms (i.e., worms with a score equal to or lower than 1.5) in each biological replicate is shown; data are from two biological replicates. Within each boxplot, black horizontal lines denote group medians, boxes span from the 25th to the 75th percentile of each group’s distribution, and whiskers extend to the maximum and minimum values. […]"}, "adult H. polygyrus [2]": {"tested_on": "adult H. polygyrus", "type": "cell-based, Heligmosomoides polygyrus", "conditions": "for Worm viability score, individual worms (Worm1-Worm20): scale from 0 (dead) to 3 (motile)", "procedure": "After either 24- or 72 h chemical treatment, worm viability was manually scored by an examiner using a scale from 0 (dead) to 3 (motile); DMSO was used as a negative control in both 24- and 72 h treatments. The percentage of affected worms (i.e., worms with a score equal to or lower than 1.5) in each biological replicate is shown; data are from two biological replicates. Within each boxplot, black horizontal lines denote group medians, boxes span from the 25th to the 75th percentile of each group’s distribution, and whiskers extend to the maximum and minimum values.\nThe eleven benzimidazole derivatives were tested at a concentration of 10 µM under aerobic conditions against L3 and adult H. polygyrus.\nFor the larval assay, mice feces were collected 2 weeks post-infection and eggs were isolated. The eggs were left on agar at room temperature in the dark for eight to 10 days to allow them to develop into L3. Next, 30–40 L3 were incubated (37 °C, 5% CO2) in the culture medium (RPMI 1640 medium + 1% pen./strep. + 5% amphotericin B) containing the derivatives in 96-well plate (Corning, USA) reaching a final volume of 250 µL for 24 h. For the adult drug screening assay, female NMRI mice were euthanized with CO2 and adult H. polygyrus were dissected out of the intestines. Subsequently, three worms were exposed to the culture medium (RPMI 1640 medium + 1% pen./strep. + 5% amphotericin B) with the derivatives (2 mL) in a 24-well plate (Corning, USA) for either 24 or 72 h. DMSO ( < 1%) served as a negative control in both assays. All conditions were tested in duplicates. Finally, 80 µL of hot water ( ~ 80 °C) for L3 and 500 µL of hot water (~80 °C) for adults were added to the wells to check for their viability under a microscope (Carl Zeiss, Germany). Larvae were categorized as being either alive or dead, depending on whether they moved or not. […] The whole experiment was performed two times i.e., two independent biological replicates for both life stages (L3s and adults) and exposure times (24 and 72 h)."}, "[3]": {"conditions": "screened at 50 μM in triplicate, hit = modified z-score < −3, KCN = KCN survival assay, Dev. & Viability = development/viability assay"}, "[4]": {"conditions": "screened at 50 μM in triplicate, […], KCN = KCN survival assay, Dev. & Viability = development/viability assay"}, "[5]": {"conditions": "adult H. polygyrus, in vitro, aerobic, 24 hours, per biological replicate"}, "[6]": {"conditions": "adult H. polygyrus, in vitro, aerobic, 72 hours, per biological replicate"}},
  "note": "Several values for one entry are separate records, joined by “and”; a condition that tells them apart may be missing. Equal values may be shown once. Read-outs that look alike come from different tables or passages of the source.",
  "data": [
    {"smiles": "Cc1nc2ccc(Br)cc2c2c1CC(C(C)(Cl)Br)O2", "note": "(racemic) [NPD10211]", "values": [
      {"measurement": "LC50", "setting": "L1 wild-type C. elegans", "value": 14.5, "unit": "µM"},
      {"measurement": "Hit Type", "setting": "C. elegans; [3]", "value": "KCN/Dev. & Viability"}
    ]},
    {"smiles": "COc1ccccc1/C=C/C(=O)c1cc(C)ccc1O", "note": "[NPD8582]", "values": [
      {"measurement": "LC50", "setting": "L1 wild-type C. elegans", "value": 14.7, "unit": "µM"},
      {"measurement": "Hit Type", "setting": "C. elegans; [3]", "value": "KCN"}
    ]},
    {"smiles": "O=C(CCCN1C(=O)c2cccc3cccc(c23)C1=O)N1CCN(Cc2ccc3c(c2)OCO3)CC1", "note": "[HTD0465]", "values": [
      {"measurement": "Hit Type", "setting": "C. elegans; [3]", "value": "Dev. & Viability"},
      {"measurement": "CC50", "setting": "HEK293 cells", "value": 20.5, "unit": "µM"}
    ]},
    {"smiles": "COc1ccc(N=c2cc(-c3ccc(OC)c(OC)c3)oc3ccccc23)c(OC)c1", "note": "[NPD6383]", "values": [
      {"measurement": "LC50", "setting": "L1 wild-type C. elegans", "value": 22.2, "unit": "µM"},
      {"measurement": "Hit Type", "setting": "C. elegans; [3]", "value": "KCN"}
    ]},
    {"smiles": "CCCC[C@@]1(OC(=O)CCC(=O)O)CC[C@]2(CC[C@H](C)[C@@H](C/C=C(C)/C=C/[C@H](O)[C@@H](C)/C=C/C(=O)O)O2)O[C@H]1/C=C/C(C)=C/C(=O)O", "note": "[Reveromycin A, reference compound]", "values": [
      {"measurement": "Hit Type", "setting": "C. elegans; [4]", "value": "Dev. & Viability"}
    ]},
    {"smiles": "CC[C@@]1(O)C(=O)OCc2c1cc1n(c2=O)Cc2cc3ccccc3nc2-1", "note": "[Camptothecin, reference compound]", "values": [
      {"measurement": "Hit Type", "setting": "C. elegans; [4]", "value": "Dev. & Viability"}
    ]},
    {"smiles": "Cc1ccc(N=c2cc(-c3ccc4c(c3)OCO4)oc3ccccc23)cc1C", "note": "[NPD601]", "values": [
      {"measurement": "LC50", "setting": "L1 wild-type C. elegans", "value": 13.6, "unit": "µM"},
      {"measurement": "Hit Type", "setting": "C. elegans; [3]", "value": "KCN"}
    ]},
    {"smiles": "CCc1ccc(-c2cc(C(=O)Nc3nccs3)c3ccccc3n2)cc1", "note": "[STK418118]", "values": [
      {"measurement": "Hit Type", "setting": "C. elegans; [3]", "value": "Dev. & Viability"},
      {"measurement": "CC50", "setting": "HEK293 cells", "value": "> 50", "unit": "µM"}
    ]},
    {"smiles": "CC1(C#CCN2CCCCCC2)CCC2C(O1)c1ccccc1OC2(C)C", "note": "(stereo not drawn) [NPD5219]", "values": [
      {"measurement": "Hit Type", "setting": "C. elegans; [3]", "value": "Dev. & Viability"},
      {"measurement": "CC50", "setting": "HEK293 cells", "value": 14.8, "unit": "µM"}
    ]},
    {"smiles": "COC(=O)Nc1nc2ccc(C(=O)c3cccs3)cc2[nH]1", "note": "[Nocodazole, reference compound]", "values": [
      {"measurement": "Hit Type", "setting": "C. elegans; [4]", "value": "Dev. & Viability"}
    ]},
    {"smiles": "CN[C@@H]1C[C@H]2O[C@@](C)([C@@H]1OC)n1c3ccccc3c3c4c(c5c6ccccc6n2c5c31)C(=O)NC4", "note": "[Staurosporine, reference compound]", "values": [
      {"measurement": "Hit Type", "setting": "C. elegans; [4]", "value": "Dev. & Viability"}
    ]},
    {"smiles": "CC(C)Cc1ccc(C(C)c2nc3ccccc3n2C)cc1", "note": "(racemic) [NPD87890]", "values": [
      {"measurement": "Percent Worms Affected", "setting": "adult H. polygyrus [1]; replicate 1", "value": 100, "unit": "%"},
      {"measurement": "Percent Worms Affected", "setting": "adult H. polygyrus [1]; replicate 2", "value": 100, "unit": "%"},
      {"measurement": "# of Worms Affected", "setting": "adult H. polygyrus [1]; replicate 1", "value": 6},
      {"measurement": "Worm viability score, individual worms (Worm1-Worm20)", "setting": "adult H. polygyrus [1]; replicate 1", "value": "0.5 (3×) and 0 (2×) and 1"},
      {"measurement": "# of Worms Affected", "setting": "adult H. polygyrus [1]; replicate 2", "value": 6},
      {"measurement": "Worm viability score, individual worms (Worm1-Worm20)", "setting": "adult H. polygyrus [1]; replicate 2", "value": "1.5 and 1 (5×)"},
      {"measurement": "Worm viability score of individual worm, scale from 0 (dead) to 3 (motile)", "setting": "adult H. polygyrus [2]", "value": "1 and 0.5"},
      {"measurement": "Percent Worms Affected", "setting": "adult H. polygyrus [2]; adult H. polygyrus, aerobic, replicate 1, 24 hours after treatment, affected = score equal to or lower than 1.5", "value": 100, "unit": "%"},
      {"measurement": "# of Worms Affected", "setting": "adult H. polygyrus [2]; [5]", "value": "3 and 6"},
      {"measurement": "Percent Worms Affected (worms with a score equal to or lower than 1.5)", "setting": "adult H. polygyrus [2]; [5]", "value": "50% and 100%"},
      {"measurement": "Worm viability score of individual worm, scale from 0 (dead) to 3 (motile)", "setting": "adult H. polygyrus [2]; adult H. polygyrus, in vitro, aerobic, 24 hours, single worms", "value": "2 (2×) and 2.5 and 1.5 and 1 and 1.25 (5×)"},
      {"measurement": "# of Worms Affected", "setting": "adult H. polygyrus [2]; [6]", "value": "5 and 6"},
      {"measurement": "Percent Worms Affected (worms with a score equal to or lower than 1.5)", "setting": "adult H. polygyrus [2]; [6]", "value": "83% and 100%"},
      {"measurement": "Worm viability score of individual worm, scale from 0 (dead) to 3 (motile)", "setting": "adult H. polygyrus [2]; adult H. polygyrus, in vitro, aerobic, 72 hours, single worms", "value": "2 and 1.5 and 1 (2×) and 0.5 and 0.75 (3×)"},
      {"measurement": "# of Worms Affected", "setting": "adult H. polygyrus [2]; aerobic, replicate 1, 24 hours after treatment, worms with score equal to or lower than 1.5", "value": 6},
      {"measurement": "Worm viability score, individual worms (Worm1-Worm20)", "setting": "adult H. polygyrus [2]; aerobic, replicate 1, 24 hours after treatment", "value": "1.25 (5×) and 1"},
      {"measurement": "# of Worms Affected", "setting": "adult H. polygyrus [2]; aerobic, replicate 2, 24 hours after treatment, worms with score equal to or lower than 1.5", "value": 3},
      {"measurement": "Worm viability score, individual worms (Worm1-Worm20)", "setting": "adult H. polygyrus [2]; aerobic, replicate 2, 24 hours after treatment", "value": "2 (2×) and 2.5 and 1 (2×) and 1.5"}
    ]},
    {"smiles": "COc1cccc2c1cc([N+](=O)[O-])c1c(C(=O)O)cc3c(c12)OCO3", "note": "[Aristolochic acid, reference compound]", "values": [
      {"measurement": "Hit Type", "setting": "C. elegans", "value": "Dev. & Viability"}
    ]},
    {"smiles": "Cc1nc2ccc(Br)cc2c2c1CC(C)O2", "note": "(racemic) [NP974]", "values": [
      {"measurement": "LC50", "setting": "L1 wild-type C. elegans", "value": 19, "unit": "µM"},
      {"measurement": "Hit Type", "setting": "C. elegans; [3]", "value": "KCN/Dev. & Viability"}
    ]}
  ]
}
